Converted amounts (≈) assume the structure as drawn. The source made the active and inactive calls. The calls are words filed in the database; no cut-off is given here.

One experiment deals with M109. As to the kind of experiment: Cytotoxicity against mouse M109 cells. In kind it is functional, cell-based.
The test system of another experiment is Saccharomyces cerevisiae. In words: Antimicrobial activity against yeast Sc7. In kind it is functional.
The test system of experiment [1] is Meyerozyma guilliermondii. In words: Antimicrobial activity against sCandida guilliermondii. In kind it is functional.
The next experiment has as its system KB. As to the kind of experiment: Cytotoxicity against human KB cells. In kind it is functional. The settings on record: read-out: ED50 (the source's name).
For the next experiment, the system named is Candida tropicalis. In words: Antimicrobial activity against Candida tropicalis. The format is functional.

With `C=C1CC[C@H]2C(C)(C)CCC[C@]2(C)[C@H]1[C@@H]1C=C(C=O)C[C@H](O)O1`, the IC50 (usually the concentration needed to halve the response being measured) in the experiment on M109 was 2.6 µg/mL (≈ 8.16 µM). The IC12 in the experiment on Saccharomyces cerevisiae is 3 µg/mL.

Turning to `C=C1CC[C@H]2C(C)(C)CCC[C@]2(C)[C@H]1C/C=C(/C=O)CC=O`, the minimal inhibitory concentration (MIC) (in experiment [1]; in the experiment with Candida tropicalis) was 6.25 µg/mL (≈ 20.7 µM) throughout. The EC50 in the experiment with KB was found to be 40 µg/mL (≈ 132 µM). The result in the experiment on M109 was inactive. In the experiment with Saccharomyces cerevisiae, this compound had an IC12 of 46 µg/mL.

Consider `C=C1CC[C@H]2C(C)(C)CCC[C@]2(C)[C@H]1C/C=C(/C=O)CC(=O)O`, for which the outcome in the experiment with M109 was inactive. The compound further showed an IC12 with Saccharomyces cerevisiae of 200 µg/mL.

For the origin of these results see ChEMBL document CHEMBL1158866, “Bioactive labdane diterpenoids from Renealmia alpinia collected in the Suriname rainforest” (J Nat Prod, 1997).
